# Measurements reported in ChEMBL document CHEMBL1131942, “(3-substituted benzyl)thiazolidine-2,4-diones as structurally new antihyperglycemic agents” (Bioorg Med Chem Lett, 1999).
# How the values were obtained:
# Type in all cases: functional
# Mus musculus [1] = assay: Antihyperglycemic activity was determined in obese (ob/ob) mice by po administration at a dose of 10 mg/kg
# Mus musculus [2] = assay: Antihyperglycemic activity in obese mice(ob/ob) at 3 mg/kg peroral administration; settings: route oral
# Mus musculus [3] = assay: Antihyperglycemic activity in obese mice(ob/ob) at 1 mg/kg peroral administration; settings: route oral
# Mus musculus [4] = assay: In vivo decrease in insulin in obese mice(ob/ob) at 3 mg/kg/day peroral administration for 2 weeks; settings: route oral
# Mus musculus [5] = assay: In vivo decrease in glucose in obese mice(ob/ob) at 3 mg/kg/day peroral administration for 2 weeks; settings: route oral
# Mus musculus [6] = assay: In vivo decrease in glucose in obese mice(ob/ob) at 1 mg/kg/day peroral administration for 2 weeks; settings: route oral
# Mus musculus [7] = assay: In vivo decrease in triglyceride in obese mice(ob/ob) by 0.3 mg/kg/day peroral administration for 2 weeks; settings: route oral
# Mus musculus [8] = assay: In vivo decrease in glucose in obese mice(ob/ob) by 0.3 mg/kg/day peroral administration for 2 weeks; settings: route oral
# Mus musculus [9] = assay: In vivo decrease in insulin in obese mice(ob/ob) at 0.3 mg/kg/day peroral administration for 2 weeks; settings: route oral
# Mus musculus [10] = assay: In vivo decrease in glucose in obese mice(ob/ob) by 1 mg/kg/day peroral administration for 2 weeks; settings: route oral
# Mus musculus [11] = assay: In vivo decrease in triglyceride in obese mice(ob/ob) by 3 mg/kg/day peroral administration for 2 weeks; settings: route oral
# Mus musculus [12] = assay: In vivo decrease in insulin in obese mice(ob/ob) at 10 mg/kg/day peroral administration for 2 weeks; settings: route oral
# Mus musculus [13] = assay: In vivo decrease in glucose in obese mice(ob/ob) by 10 mg/kg/day peroral administration for 2 weeks; settings: route oral
# Mus musculus [14] = assay: In vivo decrease in insulin in obese mice(ob/ob) at 1 mg/kg/day peroral administration for 2 weeks; settings: route oral
# Mus musculus [15] = assay: In vivo decrease in glucose in obese mice(ob/ob) at 10 mg/kg/day peroral administration for 2 weeks; settings: route oral
smiles,measurement,setting,value
COc1ccc(CC2SC(=O)NC2=O)cc1C(=O)NCCc1ccc(C(F)(F)F)cc1 (configuration not stated),Decrease in blood glucose,Mus musculus [1],3%
COc1ccc(C(=O)NCc2ccc(C(F)(F)F)cc2)cc1CC1SC(=O)NC1=O (configuration not stated),Decrease in blood glucose,Mus musculus [1],3%
CC(C)Oc1ccc(CC2SC(=O)NC2=O)cc1C(=O)NCc1ccc(C(F)(F)F)cc1 (configuration not stated),Decrease in blood glucose,Mus musculus [1],45%
COc1ccc(CC2SC(=O)NC2=O)cc1C(=O)NCc1cc(C(F)(F)F)cc(C(F)(F)F)c1 (configuration not stated),Decrease in blood glucose,Mus musculus [1],30%
COc1ccc(C2SC(=O)NC2=O)cc1C(=O)NCc1ccc(C(F)(F)F)cc1 (configuration not stated),Decrease in blood glucose,Mus musculus [2],36%
same,Decrease in blood glucose,Mus musculus [3],27%
same,Decrease in blood glucose,Mus musculus [1],48%
COc1ccc(CC2SC(=O)NC2=O)cc1C(=O)NCc1ccc(C(C)(C)C)cc1 (configuration not stated),Decrease in blood glucose,Mus musculus [1],5%
O=C1NC(=O)C(Cc2ccc(O)c(C(=O)NCc3ccc(C(F)(F)F)cc3)c2)S1 (configuration not stated),Decrease in blood glucose,Mus musculus [2],12%
same,Decrease in blood glucose,Mus musculus [3],7%
same,Decrease in blood glucose,Mus musculus [1],34%
COc1ccc(CC2SC(=O)NC2=O)cc1C(=O)NCc1ccc(N(C)C)cc1 (configuration not stated),Decrease in blood glucose,Mus musculus [1],12%
CCOc1ccc(CC2SC(=O)NC2=O)cc1C(=O)NCc1ccc(C(F)(F)F)cc1 (configuration not stated),Decrease in blood glucose,Mus musculus [1],34%
Cc1ccc(CC2SC(=O)NC2=O)cc1C(=O)NCc1ccc(C(F)(F)F)cc1 (configuration not stated),Decrease in blood glucose,Mus musculus [1],16%
COc1ccc(CCC2SC(=O)NC2=O)cc1C(=O)NCc1ccc(C(F)(F)F)cc1 (configuration not stated),Decrease in blood glucose,Mus musculus [2],20%
same,Decrease in blood glucose,Mus musculus [3],15%
same,Decrease in blood glucose,Mus musculus [1],43%
COc1ccc(CC2SC(=O)NC2=O)cc1C(=O)NCc1ccccc1C(F)(F)F (configuration not stated),Decrease in blood glucose,Mus musculus [1],4%
COc1ccc(CC2SC(=O)NC2=O)cc1C(=O)NCc1ccc(F)cc1 (configuration not stated),Decrease in blood glucose,Mus musculus [1],28%
COc1ccc(CC2SC(=O)NC2=O)cc1C(=O)NCc1ccccc1 (configuration not stated),Decrease in blood glucose,Mus musculus [2],31%
same,Decrease in blood glucose,Mus musculus [3],19%
same,Decrease in blood glucose,Mus musculus [1],37%
COc1c(CC2SC(=O)NC2=O)cccc1C(=O)NCc1ccc(C(F)(F)F)cc1 (configuration not stated),Decrease in blood glucose,Mus musculus [1],0%
COc1ccc(CC2SC(=O)NC2=O)cc1C(=O)NCc1ccc(C(F)(F)F)cc1 (configuration not stated),Rate of decrease,Mus musculus [4],83%
same,Rate of decrease,Mus musculus [5],95%
same,Rate of decrease,Mus musculus [6],78%
same,Rate of decrease,Mus musculus [7],67%
same,Rate of decrease,Mus musculus [8],77%
same,Decrease in blood glucose,Mus musculus [2],53%
same,Rate of decrease,Mus musculus [9],55%
same,Rate of decrease,Mus musculus [10],80%
same,Rate of decrease,Mus musculus [11],122%
same,Decrease in blood glucose,Mus musculus [3],35%
same,Rate of decrease,Mus musculus [12],87%
same,Decrease in blood glucose,Mus musculus [1],58%
same,Rate of decrease,Mus musculus [13],130%
same,Rate of decrease,Mus musculus [14],59%
same,Rate of decrease,Mus musculus [15],100%
COc1ccc(CCCC2SC(=O)NC2=O)cc1C(=O)NCc1ccc(C(F)(F)F)cc1 (configuration not stated),Decrease in blood glucose,Mus musculus [2],29%
same,Decrease in blood glucose,Mus musculus [3],10%
same,Decrease in blood glucose,Mus musculus [1],39%
COc1ccc(CC2SC(=O)NC2=O)cc1C(=O)NCc1ccc(OC(F)(F)F)cc1 (configuration not stated),Decrease in blood glucose,Mus musculus [1],34%
O=C1NC(=O)C(Cc2ccc(F)c(C(=O)NCc3ccc(C(F)(F)F)cc3)c2)S1 (configuration not stated),Decrease in blood glucose,Mus musculus [1],50%
COc1ccc(CC2SC(=O)NC2=O)cc1C(=O)NCc1cccc(C(F)(F)F)c1 (configuration not stated),Decrease in blood glucose,Mus musculus [1],41%
COc1ccc(CNC(=O)c2cc(CC3SC(=O)NC3=O)ccc2OC)cc1OC (configuration not stated),Decrease in blood glucose,Mus musculus [1],30%
COc1ccc(CC2SC(=O)NC2=O)cc1C(=O)Nc1ccc(C(C)(C)C)cc1 (configuration not stated),Decrease in blood glucose,Mus musculus [1],17%
COc1ccc(CNC(=O)c2cc(CC3SC(=O)NC3=O)ccc2OC)cc1 (configuration not stated),Decrease in blood glucose,Mus musculus [1],21%
COc1ccc(CC2SC(=O)NC2=O)cc1C(=O)NCc1ccc(C)cc1 (configuration not stated),Decrease in blood glucose,Mus musculus [1],30%
CCN(Cc1ccc(C(F)(F)F)cc1)C(=O)c1cc(CC2SC(=O)NC2=O)ccc1OC (configuration not stated),Decrease in blood glucose,Mus musculus [1],31%
CCc1ccc(CCOc2ccc(CC3SC(=O)NC3=O)cc2)nc1 (configuration not stated) [PIOGLITAZONE],Rate of decrease,Mus musculus [4],43%
same,Rate of decrease,Mus musculus [5],64%
same,Rate of decrease,Mus musculus [11],85%
same,Rate of decrease,Mus musculus [12],41%
same,Decrease in blood glucose,Mus musculus [1],14%
same,Rate of decrease,Mus musculus [13],99%
same,Rate of decrease,Mus musculus [15],75%
Cc1c(C)c2c(c(C)c1O)CCC(C)(COc1ccc(CC3SC(=O)NC3=O)cc1)O2 (configuration not stated) [TROGLITAZONE],Decrease in blood glucose,Mus musculus [1],9%
